Measured values taken from article PMC4138991, “Building a Better Dynasore: The Dyngo Compounds Potently Inhibit Dynamin and Endocytosis” (Traffic (Copenhagen, Denmark), 2013).
Entries after “also recorded” stand apart in the source; their conditions may differ.

Columns and labels:
[1] = tested on: grb2-stimulated dynamin; design: method as in PMID 16740485; conditions: no detergent, read-out: previously estimated IC50 for dynasore; cited from earlier work
[2] = target: microtubule-stimulated dynamin I (Ovis aries, UniProt A0ACI6PDC7); assay: Microtubule-stimulated (helical) dynamin I GTPase assay; format: biochemical, sheep; conditions: presence of Tween-80
Method: The Malachite Green colorimetric GTPase assay was as described 10. Dynamin I activity was measured in its SAI activity state or was stimulated by three different methods. As each stimulus activates dynamin to different extents, each assay required different dynamin concentrations. First, maximal dynamin activity was stimulated by sonicated PS liposomes 10. Purified dynamin I (10–20 nM, diluted in: 6 mM Tris–HCl, 20 mM NaCl and 0.01% Tween 80, pH 7.4) was incubated in 96‐well plates in GTPase buffer (5 mM Tris–HCl, 10 mM NaCl, 2 mM Mg^2+, 0.05% Tween 80, pH 7.4, 1 µg/mL leupeptin and 0.1 mM PMSF) and GTP 0.3 mM in the presence of test compound for 30 min at 37°C in a final assay volume of 150 μL. Reactions were terminated with 10 μL of 0.5 M ethylenediaminetetraacetic acid (EDTA) pH 7.4 and Malachite Green solution (40 μL: 2% w/v ammonium molybdate tetrahydrate, 0.15% w/v malachite green and 4 M HCl) was added for 5 min. Second, dynamin (20 nM) was stimulated by 10 µg/mL of taxol‐stabilized preformed bovine brain microtubules (Cytoskeleton, Inc) using the same protocol. […] Finally, dynamin (500 nM) SAI activity was measured using high concentrations of dynamin, which promote its cooperative self‐assembly into rings (but not helices) 26. […] After the Vmax and Km values were determined, the data were transformed using the Lineweaver–Burke equation, 1/v = 1/Vmax + (Km/Vmax)(1/[S]).

[3] = tested on: cultured CGNs; assay: SV turnover by FM1-43 loading/unloading in cultured cerebellar granule neurons; format: cell-based, rat; conditions: 30 μM, 15 min preincubation
Method: Granule neuron cultures were prepared from the cerebella of 7‐day‐old rat pups as previously described 57. In all experiments, neurons were used between 8 and 10 days in vitro.
Neuronal cultures were removed from culture medium and left for 10 min in incubation medium [170 mM NaCl, 3.5 mM KCl, 0.4 mM KH2PO4, 20 mM TES (N‐tris[hydroxy‐methyl]‐methyl‐2‐aminoethane‐sulfonic acid), 5 mM NaHCO3, 5 mM glucose, 1.2 mM Na2SO4, 1.2 mM MgCl2 and 1.3 mM CaCl2, pH 7.4]. Cultures were then mounted in a Warner imaging chamber (RC‐21BRFS). Invaginating membrane was loaded with FM1‐43 (10 μM) by evoking SV turnover with a brief train of action potentials (80 Hz for 10 seconds, 100 mA and 1‐millisecond pulse width, delivered using platinum wires embedded in the imaging chamber). Dye kept present for 1 min after stimulation to ensure all retrieving membrane was labeled (S1 loading). After a 10‐min rest period, accumulated dye was unloaded from nerve terminals using two consecutive maximal stimuli with incubation media supplemented with 50 mM KCl (50 mM NaCl removed to maintain osmolarity). The fluorescence decrease due to dye loss provides an estimate of the total number of synaptic vesicles turned over during stimulation (S1). After a 20‐min rest period the S1 protocol was repeated (S2 loading and unloading). […]

[4] = target: dynamin I binding to SH3 domains of grb2, amphiphysin I, endophilin I (Homo sapiens, UniProt Q05193); assay: Pull-down of dynamin I with SH3 domains; conditions: 10, 40 and 100 µM 4a
Method: Recombinant human dynamin I was expressed in insect cells (SF21). Cells were lysed and sonicated in 20 mM HEPES buffer with 250 mM NaCl. The lysates were diluted in 20 mM HEPES buffer alone to obtain a final 50 mM NaCl concentration. This diluted lysate was used for pull-downs with 6 µg of GST-amphiphysin1 SH3, GST-endophilin SH3 or GST-grb2 SH3 (all recombinantly expressed in bacteria) immobilised on glutathione sepharose beads. Incubations were done in the presence or absence of 10, 40 and 100 µM 4a for 1 hr at 10°C. The GSH beads were then washed three times with ice cold PBS and the bound proteins were separated on 12% SDS-PAGE gels and visualised using Coomassie Blue.

dynamin I binding to SH3 domains of grb2, amphiphysin I, endophilin I, sequence (Q05193 whole entry, the tested form may be a part): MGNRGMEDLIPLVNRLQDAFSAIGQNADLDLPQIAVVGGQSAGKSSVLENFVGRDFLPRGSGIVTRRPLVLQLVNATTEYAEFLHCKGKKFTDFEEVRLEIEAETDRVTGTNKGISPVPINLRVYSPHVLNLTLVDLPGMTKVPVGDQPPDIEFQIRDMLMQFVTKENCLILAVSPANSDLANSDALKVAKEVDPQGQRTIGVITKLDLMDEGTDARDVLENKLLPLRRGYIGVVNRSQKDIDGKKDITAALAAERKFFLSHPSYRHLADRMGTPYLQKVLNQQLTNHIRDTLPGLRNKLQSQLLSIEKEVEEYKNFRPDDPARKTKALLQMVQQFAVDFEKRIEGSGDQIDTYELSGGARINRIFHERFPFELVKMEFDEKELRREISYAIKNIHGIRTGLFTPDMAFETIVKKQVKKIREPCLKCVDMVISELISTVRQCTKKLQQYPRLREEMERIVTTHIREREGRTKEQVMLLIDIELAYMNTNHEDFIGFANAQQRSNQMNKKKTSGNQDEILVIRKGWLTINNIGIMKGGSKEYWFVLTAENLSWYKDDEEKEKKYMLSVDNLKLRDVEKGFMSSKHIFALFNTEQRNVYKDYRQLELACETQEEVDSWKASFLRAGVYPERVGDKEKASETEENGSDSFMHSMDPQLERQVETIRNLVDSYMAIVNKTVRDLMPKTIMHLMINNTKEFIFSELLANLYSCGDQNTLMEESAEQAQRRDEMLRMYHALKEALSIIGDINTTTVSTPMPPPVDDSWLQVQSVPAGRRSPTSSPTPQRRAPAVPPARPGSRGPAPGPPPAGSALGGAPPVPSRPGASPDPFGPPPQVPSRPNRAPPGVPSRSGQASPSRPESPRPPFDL
microtubule-stimulated dynamin I, sequence (A0ACI6PDC7 entry or part of it): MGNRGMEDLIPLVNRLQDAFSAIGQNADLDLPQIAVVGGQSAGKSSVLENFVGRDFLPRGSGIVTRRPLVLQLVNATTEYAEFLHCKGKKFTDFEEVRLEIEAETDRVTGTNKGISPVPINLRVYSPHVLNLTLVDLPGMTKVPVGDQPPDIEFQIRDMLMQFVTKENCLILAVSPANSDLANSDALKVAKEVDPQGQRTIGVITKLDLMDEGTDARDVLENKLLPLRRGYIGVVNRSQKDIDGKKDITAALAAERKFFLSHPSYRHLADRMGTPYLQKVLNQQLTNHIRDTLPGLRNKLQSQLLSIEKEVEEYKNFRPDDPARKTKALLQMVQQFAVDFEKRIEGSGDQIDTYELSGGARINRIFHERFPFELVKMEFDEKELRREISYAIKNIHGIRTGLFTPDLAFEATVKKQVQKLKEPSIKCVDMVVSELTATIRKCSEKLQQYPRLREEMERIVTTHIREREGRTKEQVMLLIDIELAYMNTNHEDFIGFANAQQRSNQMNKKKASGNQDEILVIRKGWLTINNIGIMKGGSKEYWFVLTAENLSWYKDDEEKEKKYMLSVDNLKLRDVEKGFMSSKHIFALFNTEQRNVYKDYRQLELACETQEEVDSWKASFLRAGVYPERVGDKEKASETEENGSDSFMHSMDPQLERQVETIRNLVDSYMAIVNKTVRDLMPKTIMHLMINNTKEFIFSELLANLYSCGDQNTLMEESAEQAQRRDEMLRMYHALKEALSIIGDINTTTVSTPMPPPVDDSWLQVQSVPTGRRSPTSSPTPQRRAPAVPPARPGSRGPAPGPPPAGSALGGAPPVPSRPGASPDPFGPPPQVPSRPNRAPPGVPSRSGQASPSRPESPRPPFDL

| Compound | IC50 [1] | block of microtubule-stimulated dynamin activity [2] | FM1-43 unloading (SV exocytosis) [3] | effect on dynamin I binding to SH3 domains [4] |
| --- | --- | --- | --- | --- |
| O=C(N/N=C/c1ccc(O)c(O)c1)c1cc2ccccc2cc1O [Dynasore, (E)-N'-(3,4-Dihydroxybenzylidene)-3-hydroxy-2-naphthohydrazide] | ~15 µM | did not block | – | – |
| O=C(N/N=C/c1cc(O)c(O)cc1O)c1cc2ccccc2cc1O [4a, (E)-3-Hydroxy-N'-(2,4,5-trihydroxybenzylidene) -2-naphthohydrazide] | – | – | did not have a significant acute effect | did not disrupt the binding; also recorded: no effect |
